Data taken from PubChem BioAssay (NCI).
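Where inhibition never reached the appropriate level, the endpoint shown equals the highest concentration tested. Otherwise, values were interpolated linearly from a five-concentration, 48-hour dose response in 96-well plates. At the GI50, growth is halved. TGI denotes the concentration required for complete inhibition of growth.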

Key:
Assay in all cases: NCI tumour cell line growth inhibition, 48 h
A549 NSCLC = test system: A549 NSCLC
CAKI-1 renal = test system: CAKI-1 renal
HL-60(TB) leukemia = test system: HL-60(TB) leukemia
MOLT-4 leukemia = test system: MOLT-4 leukemia
OVCAR-5 ovarian = test system: OVCAR-5 ovarian
OVCAR-8 ovarian = test system: OVCAR-8 ovarian
SK-MEL-2 melanoma = test system: SK-MEL-2 melanoma
UACC-62 melanoma = test system: UACC-62 melanoma
DU-145 prostate = test system: DU-145 prostate
T-47D breast = test system: T-47D breast

Row | Structure (SMILES) | TGI (A549 NSCLC) | TGI (CAKI-1 renal) | TGI (HL-60(TB) leukemia) | TGI (MOLT-4 leukemia) | TGI (OVCAR-5 ovarian) | TGI (OVCAR-8 ovarian) | TGI (SK-MEL-2 melanoma) | TGI (UACC-62 melanoma) | TGI (DU-145 prostate) | TGI (T-47D breast) | GI50 (A549 NSCLC) | GI50 (CAKI-1 renal) | GI50 (OVCAR-5 ovarian) | GI50 (OVCAR-8 ovarian) | GI50 (SK-MEL-2 melanoma) | GI50 (UACC-62 melanoma) | GI50 (DU-145 prostate) | GI50 (MOLT-4 leukemia) | GI50 (T-47D breast) | GI50 (HL-60(TB) leukemia)
1 | Cn1cc(-c2ccc3c4ccccc4n(C)c3c2)c2ccccc21 | > 100 µM | > 100 µM | > 100 µM | > 100 µM | > 100 µM | > 100 µM | > 100 µM | > 100 µM |  |  |  |  |  |  |  |  |  |  |  | 
2 | CC(=O)/C=C1\CC(=O)N(C)c2ccccc2N1 | > 100 µM | > 100 µM |  | > 100 µM | > 100 µM | > 100 µM | > 100 µM | > 100 µM |  |  |  |  |  |  |  |  |  |  |  | 
3 | CCCCC[C@@H]1CCCC2NC(CCCCCO[Si](c3ccccc3)(c3ccccc3)C(C)(C)C)CCC21 (stereo partly drawn) | 33.9 µM | 29 µM | 23 µM | 29.4 µM | 34.8 µM | 32.7 µM | 31 µM | 34.9 µM |  |  |  |  |  |  |  |  |  |  |  | 
4 | O=C1c2ccccc2C(=O)N1c1ccc(Cc2ccc(N3C(=O)c4ccccc4C3=O)cc2)cc1 | > 100 µM | > 100 µM |  | > 100 µM | > 100 µM | > 100 µM | > 100 µM | > 100 µM | > 100 µM | > 100 µM |  |  |  |  |  |  |  |  |  | 
5 | N.N.N.N.N#N.N#N.[Cl-].[Os+6] | > 100 µM | > 100 µM |  |  | > 100 µM | > 100 µM | > 100 µM | > 100 µM |  |  | > 100 µM | > 100 µM | > 100 µM | > 100 µM | > 100 µM | > 100 µM |  |  |  | 
6 | O=C(O)c1cccc([As]=[As]c2cccc(C(=O)O)c2)c1 (stereo not drawn) | > 100 µM | 37.1 µM |  | 95.1 µM | 53.8 µM | > 100 µM | 55.6 µM | > 100 µM | > 100 µM | > 100 µM |  |  |  |  |  |  |  |  |  | 
7 | O=C(n1c2ccccc2c2n[nH]c(=S)nc21)C(F)(F)F | > 100 µM | > 100 µM |  | > 100 µM | > 100 µM | > 100 µM |  | > 100 µM |  |  |  |  |  |  |  |  |  |  |  | 
8 | CNc1c2ccccc2nc2occ(Cl)c12 | > 100 µM | 33.2 µM |  | 64.6 µM | > 100 µM | > 100 µM | > 100 µM | > 100 µM | > 100 µM | > 100 µM | 31 µM | 12 µM | 47 µM | 37.7 µM | > 100 µM | 33.3 µM | 41.5 µM | 13.3 µM | 66.1 µM | 
9 | CC(C)(C)c1cc(C2c3cc4c(cc3OC(O)(CO)C2C(=O)O)OCO4)cc(C(C)(C)C)c1O (stereo not drawn) (tested in a mixture with another compound) | 48.1 µM | 50.3 µM | 38.2 µM | 20.3 µM |  | 33.9 µM |  | 18.8 µM |  |  |  |  |  |  |  |  |  |  |  | 
10 | Cc1nc2ccccc2c(=O)n1/N=C(\N=Nc1ccc(Cl)cc1)c1cccc(-c2ccco2)c1 | > 100 µM | 98.4 µM | 69.4 µM | > 100 µM |  | > 100 µM |  | 87 µM |  |  |  |  |  |  |  |  |  |  |  | 
11 | O=C(CC1(O)C(=O)Nc2ccccc21)c1ccc(Cl)c(Cl)c1 (stereo not drawn) | > 100 µM | > 100 µM | > 100 µM | > 100 µM | > 100 µM |  | > 100 µM | > 100 µM |  |  |  |  |  |  |  |  |  |  |  | 
12 | O=CNC(Cc1cnc[nH]1)C(=O)O (stereo not drawn) | > 100 µM | > 100 µM | > 100 µM |  | > 100 µM | > 100 µM | > 100 µM | > 100 µM | > 100 µM | > 100 µM |  |  |  |  |  |  |  |  |  | 
13 | C=C1C(=O)OC2CC1C(OC(=O)/C=C/c1ccccc1)C/C(C)=C/CC/C(C)=C/CCC2(C)O (stereo not drawn) | 3.19 µM | 2.78 µM |  | > 39.8 µM | 3.19 µM | 6.99 µM | 2.85 µM | 4.51 µM | 2.77 µM | 18.4 µM |  |  |  |  |  |  |  |  |  | 
14 | Cc1cc(NS(=O)(=O)c2ccc(NC(=O)c3ccc(Cl)c4c(Nc5ccc(S(=O)(=O)Nc6cc(C)on6)cc5)c5ccccc5nc34)cc2)no1 | 62.4 µM | 30.6 µM | 49.5 µM | 77.3 µM | 38.6 µM | > 100 µM | 50.5 µM | 34.3 µM |  |  |  |  |  |  |  |  |  |  |  | 
15 | CC1(Cl)C(=O)NC(=O)N([C@H]2C[C@H](O)[C@@H](CO)O2)C1N=[N+]=[N-] (stereo partly drawn) | > 100 µM | > 100 µM | > 100 µM | > 100 µM | > 100 µM | > 100 µM | > 100 µM | > 100 µM |  |  |  |  |  |  |  |  |  |  |  | 
16 | Cc1nc(-n2nc(-c3ccccc3)cc2-c2ccccc2)sc1C(=O)CC(=O)C(=O)Nc1ccc(Cl)c(Cl)c1 | > 100 µM | > 100 µM | > 100 µM | > 100 µM | > 100 µM | > 100 µM | > 100 µM | > 100 µM |  |  |  |  |  |  |  |  |  |  |  | 
17 | COc1ccc2nc3cc(Cl)ccc3c(Sc3ccc(N)cc3)c2c1 | 30.1 µM | 29.6 µM |  | 9.65 µM | 34.8 µM | 23.8 µM | 27.7 µM | 17.8 µM |  |  |  |  |  |  |  |  |  |  |  | 
18 | COC(=O)CNC(=O)C(=O)c1c(O)c(O)c(C(C)C)c2cc(C)c(-c3c(C)cc4c(C(C)C)c(O)c(O)c(C(=O)C(=O)NCC(=O)OC)c4c3O)c(O)c12 | 8.01 µM | 14.3 µM |  | 16 µM | 9.13 µM | 8.4 µM | 2.13 µM | 9.48 µM | 7.91 µM | 40.9 µM | 2.13 µM | 3.74 µM | 1.56 µM | 2.05 µM | 0.832 µM | 2.23 µM | 1.99 µM | 1.36 µM | 5.09 µM | 
19 | CCN(Cc1ccc(Cl)c(Cl)c1)c1ccc2nc(N)nc(N)c2c1C |  | 0.802 µM | 2.54 µM |  | 2.13 µM |  | 3.02 µM |  | 2 µM | 2.71 µM |  | < 0.0237 µM | 0.209 µM |  | 1.48 µM |  | 0.0544 µM |  | 0.67 µM | 0.195 µM
20 | Cn1c(=O)nc2n(-c3ccc(Br)cc3)c3ccccc3nc-2c1=O | 15.1 µM | 33 µM |  | 28.7 µM | 26.4 µM | 18.3 µM | 28.5 µM | 3.01 µM |  |  |  |  |  |  |  |  |  |  |  | 
21 | O=[N+]([O-])c1ccc(Sc2cccc[n+]2[O-])c2nonc12 | > 57.2 µM | 15.4 µM |  |  | 17.9 µM | > 67.6 µM | 36.3 µM | 22.6 µM | 13.1 µM | 6.5 µM | 5.61 µM | 4.85 µM | 4.32 µM | 9.93 µM | 13.5 µM | 4.58 µM | 3.55 µM |  | 1.69 µM | 
22 | Cc1c(C)c2cc3c(=O)c(CCl)coc3c(C)c2oc1=O | > 100 µM |  | > 100 µM | > 100 µM | > 100 µM | > 100 µM | > 100 µM | > 100 µM |  |  |  |  |  |  |  |  |  |  |  | 
23 | O=C1NC(c2ccccc2)(c2ccccc2)C(=O)N1CCCCCCN1C(=O)NC(c2ccccc2)(c2ccccc2)C1=O | > 100 µM | > 100 µM | > 100 µM | > 100 µM | > 100 µM | > 100 µM | 66.2 µM | > 100 µM |  |  |  |  |  |  |  |  |  |  |  | 
